Values quoted from earlier work, collected in patent publication US5574025A, “Inhibitors of prenyl-protein transferases” (Merck & Co., Inc., priority 1994, dated 1996).

Test system: Ras
Conditions: Hancock et al., Casey et al., Schafer et al.

| Compound | Inhibition of Ras famesylation in vivo |
| --- | --- |
| CC[C@H](C)C(=O)O[C@H]1C[C@@H](C)C=C2C=C[C@H](C)[C@H](CC[C@@H]3C[C@@H](O)CC(=O)O3)[C@H]21 [Lovastatin] | Inhibition of Ras famesylation in vivo has been demonstrated |
| CC[C@H](C)C(=O)O[C@H]1CCC=C2C=C[C@H](C)[C@H](CC[C@@H]3C[C@@H](O)CC(=O)O3)[C@H]21 [compactin] | Inhibition of Ras famesylation in vivo has been demonstrated |
